Holding throughout (assay type): biochemical
For experiment [1], the target named is Human cathepsin B (Homo sapiens, UniProt P07858). Nature of the experiment: Cathepsin B Assay. To be noted: apparent inhibition constant; substrate Z-FR-AMC; pH 6. As for the experimental part: Solutions of test compounds in varying concentrations were prepared in 10 μL of dimethyl sulfoxide (DMSO) and then diluted into assay buffer (40 μL, comprising: N,N-bis(2-hydroxyethyl)-2-aminoethanesulfonic acid (BES), 50 mM (pH 6); polyoxyethylenesorbitan monolaurate, 0.05%; and dithiothreitol (DTT), 2.5 mM). Human cathepsin B (0.025 pMoles in 25 μL of assay buffer) was added to the dilutions. The assay solutions were mixed for 5-10 seconds on a shaker plate, covered and incubated for 30 min at room temperature. Z-FR-AMC (20 nMoles in 25 μL of assay buffer) was added to the assay solutions and hydrolysis was followed spectrophotometrically at (λ 460 nm) for 5 min. Apparent inhibition constants (Ki) were calculated from the enzyme progress curves using standard mathematical models.

Experiment [2] deals with Human cathepsin S (Homo sapiens, UniProt P25774). Nature of the experiment: Cathepsin S Assay. To be noted: apparent inhibition constant; substrate Z-Val-Val-Arg-AMC; pH 6.5. As for the experimental part: (§1) Solutions of test compounds in varying concentrations were prepared in 10 μL of dimethyl sulfoxide (DMSO) and then diluted into assay buffer (40 μL, comprising: MES, 50 mM (pH 6.5); EDTA, 2.5 mM; and NaCl, 100 mM); β-mercaptoethanol, 2.5 mM; and BSA, 0.00%. Human cathepsin S (0.05 pMoles in 25 μL of assay buffer) was added to the dilutions. The assay solutions were mixed for 5-10 seconds on a shaker plate, covered and incubated for 30 min at room temperature. Z-Val-Val-Arg-AMC (4 nMoles in 25 μL of assay buffer containing 10% DMSO) was added to the assay solutions and hydrolysis was followed spectrophotometrically (at λ 460 nm) for 5 min. Apparent inhibition constants (Ki) were calculated from the enzyme progress curves using standard mathematical models.

Experiment [3] deals with Human cathepsin L (Homo sapiens, UniProt P07711). Nature of the experiment: Cathepsin L Assay. To be noted: apparent inhibition constant; substrate Z-Phe-Arg-AMC; pH 5.5. As for the experimental part:
Solutions of test compounds in varying concentrations were prepared in 10 μL of dimethyl sulfoxide (DMSO) and then diluted into assay buffer (40 μL, comprising: MES, 50 mM (pH 5.5); EDTA, 2.5 mM; and DTT, 2.5 mM). Human cathepsin L (0.05 pMoles in 25 μL of assay buffer) was added to the dilutions. The assay solutions were mixed for 5-10 seconds on a shaker plate, covered and incubated for 30 min at room temperature. Z-Phe-Arg-AMC (1 nMoles in 25 μL of assay buffer) was added to the assay solutions and hydrolysis was followed spectrophotometrically at (λ 460 nm) for 5 min. Apparent inhibition constants (Ki) were calculated from the enzyme progress curves using standard mathematical models.

Experiment [4] has as its target T1, Human cathepsin F (Homo sapiens, UniProt Q9UBX1).
T1 sequence (Q9UBX1 271-484): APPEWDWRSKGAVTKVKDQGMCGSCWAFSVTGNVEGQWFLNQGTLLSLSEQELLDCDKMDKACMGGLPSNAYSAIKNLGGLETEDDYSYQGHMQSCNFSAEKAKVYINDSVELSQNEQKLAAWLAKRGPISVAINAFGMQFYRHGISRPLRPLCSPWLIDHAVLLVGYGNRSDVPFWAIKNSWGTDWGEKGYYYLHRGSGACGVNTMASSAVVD
Nature of the experiment: Cathepsin F Assay. The following applies: apparent inhibition constant; substrate Z-Phe-Arg-AMC; pH 6.5. As for the experimental part: as §1, with “DTT,” for “β-mercaptoethanol,”, “0.01%.” for “0.00%.”, “F (0.1” for “S (0.05”, “Z-Phe-Arg-AMC (2” for “Z-Val-Val-Arg-AMC (4”

Human cathepsin S, sequence (P25774 115-331): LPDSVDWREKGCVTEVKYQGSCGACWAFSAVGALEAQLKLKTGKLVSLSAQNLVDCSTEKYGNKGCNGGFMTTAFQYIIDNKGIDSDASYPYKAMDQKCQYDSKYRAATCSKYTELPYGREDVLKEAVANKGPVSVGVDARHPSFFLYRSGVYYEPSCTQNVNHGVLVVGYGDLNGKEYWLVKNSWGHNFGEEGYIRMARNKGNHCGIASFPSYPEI
Human cathepsin L, sequence (P07711 114-333): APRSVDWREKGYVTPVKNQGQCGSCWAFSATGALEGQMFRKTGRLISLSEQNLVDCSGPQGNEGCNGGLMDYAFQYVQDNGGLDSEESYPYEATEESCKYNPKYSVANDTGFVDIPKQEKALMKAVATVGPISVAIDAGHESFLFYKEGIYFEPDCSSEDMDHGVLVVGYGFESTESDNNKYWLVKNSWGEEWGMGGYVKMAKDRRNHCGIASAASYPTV

With `N#CC1(NC(=O)[C@H](CC(F)(F)Cc2ccccc2)N[C@@H](c2ccc(F)cc2)C(F)(F)F)CC1`, the Ki was 21 to 500 nM in experiment [1], less than 20 nM in experiment [2], 21 to 500 nM in experiment [3] and 500 to 5000 nM in experiment [4].

`N#CC1(NC(=O)[C@H](CC(F)(F)c2ccccc2)N[C@@H](c2ccc(F)cc2)C(F)(F)F)CC1`: the Ki in experiment [1] was greater than 5000 nM; in experiment [2], less than 20 nM; in experiment [3], 500 to 5000 nM; in experiment [4] it was greater than 5000 nM.

For the molecule `CC(C)CC(F)(F)C[C@H](N[C@@H](c1ccc(F)cc1)C(F)(F)F)C(=O)NC1(C#N)CC1`, the Ki in experiment [1] is 21 to 500 nM; in experiment [2] it was less than 20 nM; in experiment [3], 21 to 500 nM; in experiment [4], 21 to 500 nM.

Regarding `N#CC1(NC(=O)[C@H](CC(F)(F)CC2CC2)N[C@@H](c2ccc(F)cc2)C(F)(F)F)CC1`, the Ki in experiment [1] was 21 to 500 nM; in experiment [2], less than 20 nM; in experiment [3], 21 to 500 nM; in experiment [4], 21 to 500 nM.

As for `CCC(F)(F)C[C@H](N[C@@H](c1ccc(F)cc1)C(F)(F)F)C(=O)NC1(C#N)CC1`, the Ki in experiment [1] is 21 to 500 nM; in experiment [2], less than 20 nM; in experiment [3], 21 to 500 nM; in experiment [4] it was 21 to 500 nM.

In the case of `CCCC(F)(F)C[C@H](N[C@@H](c1ccc(F)cc1)C(F)(F)F)C(=O)NC1(C#N)CC1`, the Ki in experiment [1] was 21 to 500 nM; in experiment [2], less than 20 nM; in experiment [3], 21 to 500 nM; in experiment [4] it was 21 to 500 nM.

As for `CCCCC(F)(F)C[C@H](N[C@@H](c1ccc(F)cc1)C(F)(F)F)C(=O)NC1(C#N)CC1`, in experiment [2], the Ki is less than 20 nM.

On to `CCC(F)(F)CC[C@H](N[C@@H](c1ccc(F)cc1)C(F)(F)F)C(=O)NC1(C#N)CC1`, for which, in experiment [2], the Ki was less than 20 nM.

For the origin of these results see US8367732B2, “Di-fluoro containing compounds as cysteine protease inhibitors” (Virobay, Inc., priority 2006, dated 2013).
